Experiments:
[1] = tested on: melanoma cells resistant to dabrafenib; assay: Trypan blue cell viability, melanoma cells resistant to dabrafenib; assay type: cell-based, human; settings: patient melanoma cells resistant to dabrafenib, FIG. 5
Method: The measure of cell viability was performed in the same way as for FIG. 1. Results are expressed as percentage of cells alive relatively to the number of living cells in the presence of DMSO, which is a negative control
Cells were seeded in 6-well plates (60000 cells/well), depleted and incubated with compounds for the times indicated. Then cells were detached in the presence of 2000 of HyQTase (Thermo) and 2 ml of RPMI 1640 Glutamax (Gibco) was added to the cell solution. 100 of this solution was stained for 1 minute with 100 of 0.4% trypan blue before counting with a Malassez chamber.
Melanoma cells resistant to dabrafenib wee prepared from patients treated and presented a resistance to dabrafenib. dabrafenib, [HA15], [SR47] and [SR50] were tested on these resistant cells, in order to determine their activity on cell viability of resistant melanoma cells, as illustrated in FIG. 5.

[2] = tested on: A375 melanoma cells; assay: A375 melanoma xenograft tumor development in nude mice; assay type: in vivo; settings: 0.7 mg/mouse/day over 24 days, athymic nude mice
Method: To assess a potential antineoplastic effect of (HA15) and (SR50) in vivo, A375 melanoma cells (2.5×10^6) were injected subcutaneously in 6-week-old female athymic nude mice and treated 5 days later by injection of vehicle (labrafil) or different compounds such as PLX4032, (HA15) and (SR50) (0.7 mg/mouse/day) over a period of 24 days. Inhibitory effect is expressed as the tumor volume (mm^3) on day 8, 11, 15, 18, 22 and 24.
Athymic BALB/C nu/nu mice (Harlan) were used. The animals were 6 weeks old and weighed between 20 and 25 g. The mice were housed in the animal's C3M in a 12 h/12 h cycle. The animals received water and food ad libitum. Mice were first acclimated for one week and then injected with A375 cells (2.5 million cells in 200 μl of PBS) subcutaneously into the right and left sides. Treatment was started eight days after injection of cancer cells (when tumors were visible). The various compounds were diluted in a mixture of Labrafil (90%) (Gattefosse), Tween 80 (1%) and N,N-Dimethylacetamide (9%). Five groups of six mice treated every day intraperitoneally with 0.7 mg/day of PLX4032, SR44 (HA15), SR47 (HA32), SR50 (JG25) or with the mixture of Labrafil in control were defined. Three times a week the tumor size was measured using a caliper. […]

[3] = tested on: normal human fibroblasts; assay: Trypan blue cell viability, normal fibroblasts; assay type: cell-based; settings: 10 μM, FIG. 2
Method: Primary cell cultures of human normal melanocytes were prepared from human foreskin. In order to determine the effect of compound HA15 on cell viability of melanocytes and fibroblasts, 10 μM of ciglitazone or 10 μM of HA15 were added to the cell samples. The measure of cell viability was performed in the same way as for FIG. 1. Results are expressed as the percentage of living cells relatively to the number of living cells in the presence of DMSO, as for FIG. 1. Normal human fibroblasts prepared from foreskins of newborns were grown under 5% CO2 at 37° C. in DMEM medium supplemented with 10% FCS and penicillin/streptomycin (100 U/ml/[…]). Cells were seeded in 6-well plates (60000 cells/well), depleted and incubated with compounds for the times indicated. Then cells were detached in the presence of 2000 of […] (Thermo) and 2 ml of RPMI 1640 Glutamax (Gibco) was added to the cell solution. 100 of this solution was stained for 1 minute with 100 of 0.4% trypan blue before counting with a Malassez chamber. The effect of compound HA15 on cell viability of melanocytes and fibroblasts was studied, as illustrated by FIG. 2. Primary cell cultures of human normal melanocytes were prepared from human foreskin. In order to determine the effect of compound HA15 on cell viability of melanocytes and fibroblasts, 10 μM of ciglitazone or 10 μM of HA15 were added to the cell samples. […]

[4] = tested on: normal human melanocytes; assay: Trypan blue cell viability, normal melanocytes; assay type: cell-based; settings: 10 μM, FIG. 2
Method: Primary cell cultures of human normal melanocytes were prepared from human foreskin. In order to determine the effect of compound HA15 on cell viability of melanocytes and fibroblasts, 10 μM of ciglitazone or 10 μM of HA15 were added to the cell samples. The measure of cell viability was performed in the same way as for FIG. 1. Results are expressed as the percentage of living cells relatively to the number of living cells in the presence of DMSO, as for FIG. 1. Normal human melanocytes (NHM) prepared from foreskins of newborns were grown under 5% CO2 at 37° C. in MCDB 153 (Sigma) supplemented with 2% FCS, bovine pituitary extract (10 μg/ml), PMA (8 nM), bFGF (ing/nil), insulin (5 μg/ml), hydrocortisone (0.5 μg/ml), forskolin (10 μM), gentamicin (20 μg/ml), penicillin/streptomycin/amphotericin B (100 U/ml) (Invitrogen). Cells were seeded in 6-well plates (60000 cells/well), depleted and incubated with compounds for the times indicated. Then cells were detached in the presence of 2000 of […] (Thermo) and 2 ml of RPMI 1640 Glutamax (Gibco) was added to the cell solution. 100 of this solution was stained for 1 minute with 100 of 0.4% trypan blue before counting with a Malassez chamber. The effect of compound HA15 on cell viability of melanocytes and fibroblasts was studied, as illustrated by FIG. 2. Primary cell cultures of human normal melanocytes were prepared from human foreskin. […]

[5] = tested on: phosphorylation; assay: Western blot of MAP vemurafenib activation on A375 melanoma cells; assay type: cell-based; settings: FIG. 6
Method: FIG. 6: Western Blots showing the effect of compounds of the invention and dabrafenib on MAP Vemurafenib activation on A375 melanoma cells.
Proteins were extracted in Fisher buffer containing TRIS-HCl pH 7.5 50 mM, NaCl 15 mM, Triton X-100 1% and proteases and phosphatases inhibitors. Briefly, cell lysates (30 μg) were separated by SDS-PAGE, transferred onto a PVDF membrane (Millipore, Molsheim, France) and then exposed to the appropriate antibodies. Proteins were visualized with the ECL system from Amersham (Arlington, Heights, Ill., USA). The western blots shown are representative of at least 3 independent experiments.
Indeed, dabrafenib as PLX4032 inhibits activation of B-Raf on B-Raf V600E mutated melanoma. The inhibition of B-Raf leads to inhibition of MAP Vemurafenib cascade and could be visualized through inhibition of MAP vemurafenib phosphorylation.

SMILES: CC(=O)Nc1nc(-c2ccc(NS(=O)(=O)c3cccc4c(N(C)C)cccc34)cc2)cs1 [HA32, N-(4-(4-(5-(dimethylamino)naphthalene-1-sulfonamido)phenyl)thiazol-2-yl)acetamide]
- cell viability of resistant melanoma cells [1]: inhibit cell viability of resistant melanoma cells

SMILES: CC(=O)Nc1nc(-c2cccc(NS(=O)(=O)c3ccc(C)cc3)c2)cs1 [SR50, N-(4-(3-(4-methylphenylsulfonamido)phenyl)thiazol-2-yl)acetamide]
- cell viability of resistant melanoma cells [1]: inhibit cell viability of resistant melanoma cells
- ability of cells to develop visible tumors [2]: markedly attenuated

SMILES: CC1(COc2ccc(CC3SC(=O)NC3=O)cc2)CCCCC1 (centres unmarked) [ciglitazone, reference compound]
- cell viability of normal fibroblasts [3]: not affected
- cell viability of normal melanocytes [4]: not affected

SMILES: CC(C)(C)c1nc(-c2cccc(NS(=O)(=O)c3c(F)cccc3F)c2F)c(-c2ccnc(N)n2)s1 [dabrafenib]
- MAP vemurafenib expression [5]: did not modulate
- MAP vemurafenib phosphorylation ([5]; versus DMSO): complete inhibition
- cell viability of resistant melanoma cells [1]: contrary to dabrafenib inhibit cell viability of resistant melanoma cells

Reference: patent US20150284347A1, “NEW BENZENE SULFONAMIDE THIAZOLE COMPOUNDS” (INSERM (INSTITUT NATIONAL DE LA SANTÉ ET DE LA RECHERCHE …, priority 2012, published 2015)
